The values below come from ChEMBL document CHEMBL4257514, “Design and synthesis of novel 1,3,5-triphenyl pyrazolines as potential anti-inflammatory agents through allosteric inhibition of protein kinase Czeta (PKCζ)” (Medchemcomm, 2018).

Active and inactive are the calls of the source. No cut-off for these calls is given here. A value given as a limit tells only on which side of the number the result lay.

What is called inhibition is the relative decrease from the control value, in per cent. The IC50 is the point on the concentration scale where inhibition reaches its midpoint.

For data set [1], the system named is RAW264.7. As to the kind of experiment: Inhibition of LPS-induced nitric oxide production in mouse RAW264.7 cells at 7.5 uM measured after 20 hrs by griess assay relative to control. The conditions noted are these: RAW264.7, 20 h. It is filed as functional.
The nature of data set [2]: Cytotoxicity against mouse RAW264.7 cells assessed as live cells at 7.5 uM after 20 hrs by MTT assay relative to control. It is filed as cell-based. The conditions noted are these: read-out: Activity. A general note: Tetrazolium dyes change colour on reduction, which living cells bring about.
Data set [3] concerns the target T1, Protein kinase C zeta type (Homo sapiens, UniProt Q05513).
T1 sequence (Q05513 whole entry): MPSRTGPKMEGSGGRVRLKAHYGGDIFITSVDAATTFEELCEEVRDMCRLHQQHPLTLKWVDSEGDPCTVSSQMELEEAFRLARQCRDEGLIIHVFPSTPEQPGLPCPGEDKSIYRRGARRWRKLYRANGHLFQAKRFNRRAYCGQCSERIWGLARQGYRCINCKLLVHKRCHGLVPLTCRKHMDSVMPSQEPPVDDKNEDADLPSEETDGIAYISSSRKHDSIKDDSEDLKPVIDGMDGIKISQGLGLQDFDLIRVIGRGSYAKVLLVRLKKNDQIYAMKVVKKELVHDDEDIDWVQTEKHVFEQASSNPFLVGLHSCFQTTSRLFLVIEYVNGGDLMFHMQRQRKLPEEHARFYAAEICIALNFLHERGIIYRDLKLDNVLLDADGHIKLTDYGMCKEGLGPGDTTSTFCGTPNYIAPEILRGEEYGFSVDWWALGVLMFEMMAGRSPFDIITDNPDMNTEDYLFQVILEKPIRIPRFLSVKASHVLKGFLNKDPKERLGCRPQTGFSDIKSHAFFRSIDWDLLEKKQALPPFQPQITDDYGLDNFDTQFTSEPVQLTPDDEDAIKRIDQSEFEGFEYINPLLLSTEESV
Nature of the data set: Inhibition of recombinant GST-fused PKCzeta (unknown origin) expressed in HEK293 cells using myelin basic protein as substrate measured after 40 mins in presence of [gamma32P]ATP by phosphorimaging analysis.

Data set [4] has as its target T2, Protein kinase C iota type (Homo sapiens) (UniProt P41743).
T2 sequence (whole entry): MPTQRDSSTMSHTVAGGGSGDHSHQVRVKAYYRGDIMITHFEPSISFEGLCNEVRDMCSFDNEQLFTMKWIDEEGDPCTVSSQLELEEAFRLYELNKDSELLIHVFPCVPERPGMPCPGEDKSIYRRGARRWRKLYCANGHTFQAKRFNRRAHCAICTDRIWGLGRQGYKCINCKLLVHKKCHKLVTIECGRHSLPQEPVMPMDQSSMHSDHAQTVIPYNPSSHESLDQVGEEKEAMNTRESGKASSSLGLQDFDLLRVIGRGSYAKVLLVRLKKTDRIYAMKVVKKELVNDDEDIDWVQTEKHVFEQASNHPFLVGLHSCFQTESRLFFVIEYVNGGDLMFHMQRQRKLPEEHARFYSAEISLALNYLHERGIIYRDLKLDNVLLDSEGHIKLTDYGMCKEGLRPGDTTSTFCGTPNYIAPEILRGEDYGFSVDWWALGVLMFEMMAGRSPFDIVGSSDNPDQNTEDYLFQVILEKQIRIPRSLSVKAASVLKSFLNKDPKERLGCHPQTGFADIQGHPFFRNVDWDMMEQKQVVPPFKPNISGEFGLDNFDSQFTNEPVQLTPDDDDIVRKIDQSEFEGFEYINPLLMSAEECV
As to the kind of experiment: Inhibition of recombinant GST-fused PKCiota (unknown origin) expressed in HEK293 cells at 20 uM using myelin basic protein as substrate measured after 40 mins in presence of [gamma32P]ATP by phosphorimaging analysis relative to control.

The target of data set [5] is Protein kinase C zeta type (Homo sapiens, UniProt Q05513, V297L). Nature of the data set: Inhibition of recombinant GST-fused PKCzeta Val297Leu mutant (unknown origin) expressed in HEK293 cells using myelin basic protein as substrate measured after 40 mins in presence of [gamma32P]ATP by phosphorimaging analysis.
Sequence of Protein kinase C zeta type (Homo sapiens, UniProt Q05513, V297L) (Q05513 whole entry V297L, the tested form may be a part): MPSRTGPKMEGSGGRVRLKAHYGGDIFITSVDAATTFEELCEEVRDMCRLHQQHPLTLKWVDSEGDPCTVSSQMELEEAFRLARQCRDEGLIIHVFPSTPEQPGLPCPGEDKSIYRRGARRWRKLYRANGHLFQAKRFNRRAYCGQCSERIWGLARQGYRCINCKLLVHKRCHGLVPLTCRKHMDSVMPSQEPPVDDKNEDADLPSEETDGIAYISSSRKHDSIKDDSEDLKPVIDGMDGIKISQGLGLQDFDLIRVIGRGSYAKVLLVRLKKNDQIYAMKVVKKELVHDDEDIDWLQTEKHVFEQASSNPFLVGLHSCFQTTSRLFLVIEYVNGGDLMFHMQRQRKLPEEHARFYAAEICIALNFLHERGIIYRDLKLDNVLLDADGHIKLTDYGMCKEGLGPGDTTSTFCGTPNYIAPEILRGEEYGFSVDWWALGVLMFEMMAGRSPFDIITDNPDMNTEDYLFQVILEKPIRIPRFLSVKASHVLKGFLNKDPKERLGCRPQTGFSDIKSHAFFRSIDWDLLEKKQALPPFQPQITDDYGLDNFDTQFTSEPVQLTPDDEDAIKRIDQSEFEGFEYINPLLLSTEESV
For another data set, the species on record is Homo sapiens. As to the kind of experiment: Selectivity ratio of IC50 for recombinant GST-fused PKCzeta Val297Leu mutant (unknown origin) expressed in HEK293 cells to IC50 for recombinant GST-fused PKCzeta (unknown origin) expressed in HEK293 cells. It is filed as cell-based.
Data set [6] addresses Protein kinase C eta type (Homo sapiens) (UniProt P24723). Nature of the data set: Inhibition of PKCeta (unknown origin) at 10 uM.
The target of data set [7] is Protein kinase C gamma type (Homo sapiens) (UniProt P05129). As to the kind of experiment: Inhibition of PKCgamma (unknown origin) at 10 uM.
Data set [8] has as its target Protein kinase C delta type (Homo sapiens) (UniProt Q05655). As to the kind of experiment: Inhibition of PKCdelta (unknown origin) at 10 uM.
Data set [9] deals with T3, Protein kinase C epsilon type (Homo sapiens) (UniProt Q02156).
T3 sequence (whole entry): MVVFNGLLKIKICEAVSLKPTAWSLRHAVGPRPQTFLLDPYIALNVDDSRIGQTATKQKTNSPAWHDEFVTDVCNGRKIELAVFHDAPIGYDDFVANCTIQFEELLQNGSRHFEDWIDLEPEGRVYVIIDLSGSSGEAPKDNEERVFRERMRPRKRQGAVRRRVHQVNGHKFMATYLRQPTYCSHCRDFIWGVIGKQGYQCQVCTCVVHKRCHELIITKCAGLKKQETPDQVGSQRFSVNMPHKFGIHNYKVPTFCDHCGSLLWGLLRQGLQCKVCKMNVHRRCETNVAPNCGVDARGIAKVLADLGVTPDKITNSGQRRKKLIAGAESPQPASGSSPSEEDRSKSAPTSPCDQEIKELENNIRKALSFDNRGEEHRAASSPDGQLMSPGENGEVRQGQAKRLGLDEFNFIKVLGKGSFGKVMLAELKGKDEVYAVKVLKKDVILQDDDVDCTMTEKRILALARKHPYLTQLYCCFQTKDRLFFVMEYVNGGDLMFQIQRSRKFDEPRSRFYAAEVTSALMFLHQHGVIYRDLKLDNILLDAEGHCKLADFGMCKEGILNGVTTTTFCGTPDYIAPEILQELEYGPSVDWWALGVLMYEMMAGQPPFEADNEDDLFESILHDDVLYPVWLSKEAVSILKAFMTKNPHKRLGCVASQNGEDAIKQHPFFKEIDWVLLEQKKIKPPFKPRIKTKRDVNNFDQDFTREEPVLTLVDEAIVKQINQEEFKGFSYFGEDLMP
Nature of the data set: Inhibition of PKCepsilon (unknown origin) at 10 uM.

In data set [10] the target is Protein kinase C theta type (Homo sapiens) (UniProt Q04759). As to the kind of experiment: Inhibition of PKCtheta (unknown origin) at 10 uM.
Sequence of Protein kinase C theta type (Homo sapiens) (Q04759 whole entry, looked up): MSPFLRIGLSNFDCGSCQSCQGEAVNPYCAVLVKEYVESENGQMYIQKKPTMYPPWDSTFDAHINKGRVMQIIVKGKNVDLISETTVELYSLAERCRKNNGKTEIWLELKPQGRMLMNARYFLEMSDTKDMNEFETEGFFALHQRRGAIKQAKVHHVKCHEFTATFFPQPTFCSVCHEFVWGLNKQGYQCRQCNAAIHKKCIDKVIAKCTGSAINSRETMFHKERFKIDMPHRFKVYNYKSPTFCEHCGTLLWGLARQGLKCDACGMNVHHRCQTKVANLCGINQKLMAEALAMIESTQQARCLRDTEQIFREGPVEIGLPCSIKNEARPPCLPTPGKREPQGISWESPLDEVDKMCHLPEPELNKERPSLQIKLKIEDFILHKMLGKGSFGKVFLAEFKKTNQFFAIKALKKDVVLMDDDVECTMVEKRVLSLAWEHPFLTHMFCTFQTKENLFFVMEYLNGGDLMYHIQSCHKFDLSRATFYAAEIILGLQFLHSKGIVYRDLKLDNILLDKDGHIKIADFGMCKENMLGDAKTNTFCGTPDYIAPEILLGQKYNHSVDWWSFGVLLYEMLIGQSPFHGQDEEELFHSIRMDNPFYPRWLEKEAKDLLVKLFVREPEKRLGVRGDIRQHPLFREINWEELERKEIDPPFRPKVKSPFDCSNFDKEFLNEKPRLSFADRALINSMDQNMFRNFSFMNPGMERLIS
The target in data set [11] is Serine/threonine-protein kinase N1 (Homo sapiens) (UniProt Q16512). Nature of the data set: Inhibition of PKN1 (unknown origin) at 10 uM.
Sequence of Serine/threonine-protein kinase N1 (Homo sapiens) (Q16512 2-942 limits assumed): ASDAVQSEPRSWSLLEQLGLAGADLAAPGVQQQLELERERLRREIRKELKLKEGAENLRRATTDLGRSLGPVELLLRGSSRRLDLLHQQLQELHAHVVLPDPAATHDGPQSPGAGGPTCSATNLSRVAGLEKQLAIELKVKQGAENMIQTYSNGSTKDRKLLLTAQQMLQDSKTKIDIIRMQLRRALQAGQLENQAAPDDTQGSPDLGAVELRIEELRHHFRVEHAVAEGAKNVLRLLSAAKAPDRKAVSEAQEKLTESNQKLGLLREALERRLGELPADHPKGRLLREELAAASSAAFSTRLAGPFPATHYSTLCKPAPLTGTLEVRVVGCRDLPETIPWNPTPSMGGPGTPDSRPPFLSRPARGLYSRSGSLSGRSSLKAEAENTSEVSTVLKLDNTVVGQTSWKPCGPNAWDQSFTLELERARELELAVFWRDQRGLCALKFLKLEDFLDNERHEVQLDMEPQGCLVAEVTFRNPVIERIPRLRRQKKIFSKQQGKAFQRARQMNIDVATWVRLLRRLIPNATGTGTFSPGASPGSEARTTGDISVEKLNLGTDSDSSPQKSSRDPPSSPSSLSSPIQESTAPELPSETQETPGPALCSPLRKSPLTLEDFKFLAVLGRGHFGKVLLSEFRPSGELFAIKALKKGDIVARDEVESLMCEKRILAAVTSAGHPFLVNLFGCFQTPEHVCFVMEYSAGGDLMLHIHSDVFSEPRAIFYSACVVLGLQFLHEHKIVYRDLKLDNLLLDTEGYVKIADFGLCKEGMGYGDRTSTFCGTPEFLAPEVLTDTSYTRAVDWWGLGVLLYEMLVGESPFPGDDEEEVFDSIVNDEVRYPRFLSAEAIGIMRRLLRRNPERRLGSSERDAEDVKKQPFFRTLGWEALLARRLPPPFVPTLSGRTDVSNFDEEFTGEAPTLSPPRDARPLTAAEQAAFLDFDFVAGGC
Data set [12] deals with Protein kinase C beta type (Homo sapiens) (UniProt P05771). Nature of the data set: Inhibition of PKCbeta2 (unknown origin) at 10 uM.
Sequence of Protein kinase C beta type (Homo sapiens) (P05771 2-671 limits assumed): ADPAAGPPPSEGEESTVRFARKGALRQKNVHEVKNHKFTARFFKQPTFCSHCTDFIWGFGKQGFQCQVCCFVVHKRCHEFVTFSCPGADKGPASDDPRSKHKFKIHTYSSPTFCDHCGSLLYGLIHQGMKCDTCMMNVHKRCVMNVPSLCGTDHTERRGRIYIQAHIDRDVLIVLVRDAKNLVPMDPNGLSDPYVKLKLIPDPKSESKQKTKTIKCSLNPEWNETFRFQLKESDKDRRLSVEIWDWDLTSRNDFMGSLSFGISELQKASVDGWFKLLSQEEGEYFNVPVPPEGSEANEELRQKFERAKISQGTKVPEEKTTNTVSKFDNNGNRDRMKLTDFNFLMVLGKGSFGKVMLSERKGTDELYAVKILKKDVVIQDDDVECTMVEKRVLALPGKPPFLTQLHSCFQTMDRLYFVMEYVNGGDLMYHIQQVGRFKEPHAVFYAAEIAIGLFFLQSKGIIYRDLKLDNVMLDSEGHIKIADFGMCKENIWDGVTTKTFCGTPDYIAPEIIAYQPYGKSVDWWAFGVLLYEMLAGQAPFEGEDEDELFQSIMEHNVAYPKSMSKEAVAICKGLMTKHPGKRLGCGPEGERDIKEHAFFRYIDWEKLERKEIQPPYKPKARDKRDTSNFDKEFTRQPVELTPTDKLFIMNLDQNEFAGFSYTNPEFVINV
Data set [13] concerns the target T4, 3-phosphoinositide-dependent protein kinase 1 (Homo sapiens) (UniProt O15530).
T4 sequence (whole entry): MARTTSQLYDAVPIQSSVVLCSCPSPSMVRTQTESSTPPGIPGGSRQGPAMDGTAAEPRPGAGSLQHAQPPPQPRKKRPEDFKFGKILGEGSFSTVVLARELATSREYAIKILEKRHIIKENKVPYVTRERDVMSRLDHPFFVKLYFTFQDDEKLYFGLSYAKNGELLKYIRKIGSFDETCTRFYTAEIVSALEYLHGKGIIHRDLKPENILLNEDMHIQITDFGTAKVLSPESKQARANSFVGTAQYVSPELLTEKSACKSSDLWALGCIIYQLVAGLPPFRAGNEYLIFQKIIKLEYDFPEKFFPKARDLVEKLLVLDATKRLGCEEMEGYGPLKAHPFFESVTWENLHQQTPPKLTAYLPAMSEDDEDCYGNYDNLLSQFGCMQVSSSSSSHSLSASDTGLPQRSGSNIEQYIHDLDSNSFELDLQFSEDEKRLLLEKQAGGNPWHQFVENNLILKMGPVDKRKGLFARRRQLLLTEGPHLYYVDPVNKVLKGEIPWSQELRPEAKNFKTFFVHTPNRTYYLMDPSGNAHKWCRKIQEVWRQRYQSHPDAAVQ
Nature of the data set: Inhibition of PDK1 (unknown origin) at 10 uM.

Data set [14] has as its target Protein kinase C beta type (Homo sapiens) (UniProt P05771). Nature of the data set: Inhibition of PKCbeta1 (unknown origin) at 10 uM.
The subject of data set [15] is RAW264.7. As to the kind of experiment: Inhibition of LPS-induced nitric oxide production in mouse RAW264.7 cells measured after 20 hrs by griess assay. The conditions noted are these: RAW264.7, 20 h. It is filed as functional, cell-based. In general terms: The Griess reaction detects nitrite, a stable product of nitric oxide.
For data set [16], the target named is Protein kinase C alpha type (Homo sapiens) (UniProt P17252). Nature of the data set: Inhibition of PKCalpha (unknown origin) at 10 uM.

Sequence of Protein kinase C delta type (Homo sapiens) (Q05655 whole entry, looked up): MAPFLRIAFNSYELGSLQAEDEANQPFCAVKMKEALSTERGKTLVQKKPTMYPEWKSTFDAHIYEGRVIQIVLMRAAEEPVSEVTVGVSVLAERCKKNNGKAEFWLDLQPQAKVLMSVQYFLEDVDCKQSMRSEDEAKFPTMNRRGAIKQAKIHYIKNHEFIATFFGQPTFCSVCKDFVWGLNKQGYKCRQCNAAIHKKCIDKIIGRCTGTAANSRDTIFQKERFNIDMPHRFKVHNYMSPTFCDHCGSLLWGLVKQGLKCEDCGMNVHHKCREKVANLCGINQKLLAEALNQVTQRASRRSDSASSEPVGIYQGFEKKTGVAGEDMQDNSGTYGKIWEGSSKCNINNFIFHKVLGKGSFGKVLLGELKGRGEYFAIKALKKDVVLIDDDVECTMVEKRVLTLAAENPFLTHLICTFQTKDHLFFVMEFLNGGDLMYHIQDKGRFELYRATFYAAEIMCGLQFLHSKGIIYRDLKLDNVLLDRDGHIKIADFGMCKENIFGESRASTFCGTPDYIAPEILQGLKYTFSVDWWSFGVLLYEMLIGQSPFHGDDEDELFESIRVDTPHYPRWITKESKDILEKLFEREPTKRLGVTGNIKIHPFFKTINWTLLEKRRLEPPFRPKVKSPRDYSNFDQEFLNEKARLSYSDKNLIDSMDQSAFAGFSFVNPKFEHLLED

As for `Oc1ccc(C2=NN(c3cccc(Cl)c3)C(c3ccc(Cl)cc3)C2)cc1` (stereo unspecified), the inhibition at 7.5 µM with RAW264.7 [1] amounted to 42.8%. For the same compound, the viability at 20 h, 7.5 µM in [2] was 91%. Further, the half-maximal inhibitory concentration (IC50) in data set [3] was under 100 nM. For the same compound, the inhibition in [4] came out at 22.8%.
In the data set with RAW264.7 [1], `Oc1ccc(C2=NN(c3ccc(Cl)cc3)C(c3cccc(Cl)c3)C2)cc1` (stereo unspecified) showed an inhibition at 7.5 µM of 34%. For the same compound, in data set [2], the viability at 20 h, 7.5 µM was 96%. Besides, in data set [3], the IC50 is under 100 nM. Moreover, in [4], the inhibition turned out to be 18.6%.
In turn, `Oc1cccc(C2=NN(c3ccc(Cl)cc3)C(c3ccc(Cl)cc3)C2)c1` (stereo unspecified) registered an inhibition at 7.5 µM in the data set with RAW264.7 [1] of 45%. Besides, in data set [2], the viability at 20 h, 7.5 µM was 91%. For the same compound, the IC50 in data set [3] was 6500 nM. In addition, the inhibition in data set [4] came to 9.3%.
In the data set on RAW264.7 [1], `Oc1ccc(C2=NN(c3ccc(Cl)cc3)C(c3ccc(Cl)cc3)C2)cc1` (stereo unspecified) had an inhibition at 7.5 µM of 62.4%. For the same compound, the viability at 20 h, 7.5 µM in data set [2] is 99%. For the same compound, in data set [4], the inhibition was 24.9%.
On to `Oc1ccc(C2=NN(c3cccc(Cl)c3)C(c3cccc(Cl)c3)C2)cc1` (stereo unspecified), for which the inhibition at 7.5 µM in the data set on RAW264.7 [1] was 31.5%. Further, the concentration for half-maximal inhibition (IC50) is 4100 nM in data set [5] and 400 nM in [3]. The Ratio IC50 in the data set listed under Homo sapiens came to 10.2. In data set [2], the viability at 20 h, 7.5 µM was determined as 86%. The inhibition in [4] was found to be 29%.
On to `Oc1ccc(C2=NN(c3ccc(Cl)cc3)C(c3ccc(Cl)cc3)C2)cc1O` (stereo unspecified), for which the inhibition result in data set [6], in data set [7], in [8], in [10], in [12] and in data set [14] was “inactive” throughout. Further, in data set [16], the inhibition entry was “inactive”. In the data set with RAW264.7 [1], this compound displayed an inhibition at 7.5 µM of 100%. For the same compound, the inhibition in [9] turned out to be 11%; in data set [11], 11%; in data set [13] it was 1%; in data set [4] it was 27.6%. The viability at 20 h, 7.5 µM in [2] amounted to 94%. The IC50 with RAW264.7 [15] worked out at 300 nM.
As to `COc1cc(/C=C/C(=O)CC(=O)/C=C/c2ccc(O)c(OC)c2)ccc1O` [CURCUMIN], the inhibition at 7.5 µM in the data set on RAW264.7 [1] is 97%. Further, half-maximal inhibition with RAW264.7 [15] (IC50) was put at 800 nM.
In the same order, the values of `Oc1ccc(C2CC(c3ccccc3O)=NN2c2cccc(Cl)c2)cc1F` (stereo unspecified) are 86% and 2900 nM.
Compound `Oc1ccc(C2=NN(c3ccc(Cl)cc3)C(c3ccc(Cl)cc3)C2)c(O)c1` (stereo unspecified) yielded an inhibition at 7.5 µM in the data set on RAW264.7 [1] of 31.4%. Also, the IC50 in data set [5] was 9700 nM; in data set [3] it was 4300 nM. Further, in the data set listed under Homo sapiens, the Ratio IC50 was found to be 2.2. The viability at 20 h, 7.5 µM in data set [2] stood at 88%. Besides, the inhibition in data set [4] is 14.8%.
`Oc1ccc(C2=NN(c3cccc(Cl)c3)C(c3ccc(O)c(F)c3)C2)c(O)c1` (stereo unspecified) yielded an inhibition at 7.5 µM in the data set on RAW264.7 [1] of 87%. Besides, the IC50 in [3] is under 100 nM; in the data set with RAW264.7 [15], 3100 nM.
In turn, `Oc1ccc(C2=NN(c3ccccc3Cl)C(c3ccccc3Cl)C2)cc1` (stereo unspecified) returned an inhibition at 7.5 µM in the data set with RAW264.7 [1] of 34%. Moreover, in data set [2], the viability at 20 h, 7.5 µM was found to be 92%. Further, in data set [4], the inhibition came to 30.5%.
